For 45 compounds, IC50 results are on record in patent publication US8183236B2, “Compounds with HIV-1 integrase inhibitory activity and use thereof as anti-HIV/AIDS therapeutics” (University of Southern California, priority 2007, dated 2012).

For experiment [1], the target named is T1, HIV-1 integrase (wild-type IN) (Human immunodeficiency virus type 1 group M subtype B, UniProt P12497). The experiment is described as follows: HIV-1 integrase 3′-processing assay (32P-labeled 21-mer, gel). In kind it is biochemical. The method, boiled down: (§1)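 Wild-type IN at 200 nM preincubated with inhibitor 30 min at 30 °C in MnCl2 (7.5 mM), pH 7.2 MOPS buffer with 10% DMSO, then 20 nM 5′-32P-labeled 21-mer duplex added for 1 h. 19-mer and strand-transfer products resolved on denaturing 20% gels by phosphorimaging; IC50 from log concentration versus % inhibition.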

Experiment [2] concerns the target T1, HIV-1 integrase (wild-type IN). As to the kind of experiment: HIV-1 integrase strand transfer assay (32P-labeled 21-mer, gel). In kind it is biochemical. Summed up:
as §1

The mark [3] stands for this setting: unit inferred, read-out: HIV-1 IN Inhibitory Activities 3′-processing.
Where [4] appears, read: unit inferred, read-out: HIV-1 IN Inhibitory Activities Strand transfer.
Where [5] appears, read: unit inferred, read-out: IN inhibition activity 3′-processing.
Where [6] appears, read: unit inferred, read-out: IN inhibition activity Strand transfer.
Setting [7] is: Table 54, read-out: IN inhibition activity 3′-processing.
Where [8] appears, read: Table 54, read-out: IN inhibition activity Strand transfer.
Setting [9] is: Table 53, structurally diverse compounds, read-out: IN inhibition activity 3′-processing.
[10] abbreviates: Table 53, structurally diverse compounds, read-out: IN inhibition activity Strand transfer.
Setting [11] is: wild-type IN 200 nM, 7.5 mM MnCl2, read-out: Inhibition of IN Catalytic Activities IC50 (μM) 3′-processing.
Setting [12] is: wild-type IN 200 nM, 7.5 mM MnCl2, read-out: Inhibition of IN Catalytic Activities IC50 (μM) Strand Transfer.

With `Oc1ccccc1/C=N/CC(O)C/N=C/c1ccccc1O` [Example X208], the IC50 in experiment [1] (setting [3]) was determined as 97 µM; in experiment [2] (setting [4]), 61 µM.
In the case of `O=C(N/N=C/c1ccc(/C=N/NC(=O)c2cc(O)cc(O)c2)cc1)c1cc(O)cc(O)c1` [Example X218], the IC50 amounted to 76 µM in experiment [1] (setting [3]) and 56 µM in experiment [2] (setting [4]).
On the same counts, the results for `Cc1c(C(c2ccc(O)c(O)c2)c2c(C)n(C)n(-c3ccccc3)c2=O)c(=O)n(-c2ccccc2)n1C` [Example X219] are 89 µM and 31 µM.
On the same counts, the results for `O=C(CSc1nc(CSc2ccc(Cl)cc2)cc(=O)[nH]1)Nc1ccc(Cl)cc1Cl` [Example X272] are 34 µM and 24 µM.
As for `COc1cc(/C=N/NC2=NC(=O)C(CC(=O)Nc3ccc(Cl)c(Cl)c3)S2)ccc1O` (stereo not drawn) [Example X278], the IC50 stood at 89 µM in experiment [1] (setting [3]) and 38 µM in experiment [2] (setting [4]).
For `COc1ccc(N(CC(=O)N/N=C/c2c(O)ccc3ccccc23)S(C)(=O)=O)cc1Cl` [Example X279], in that order: 95 µM and 59 µM.
As for `Cc1ccc(C(=O)N/C(=C/c2ccc(-c3ccc(Cl)cc3Cl)o2)C(=O)NCCCO)cc1` [Example X280], the values for the IC50 in experiment [1] (setting [3]) and in experiment [2] (setting [4]) were greater than 1000 µM and 85 µM, respectively.
With `N#Cc1c(-c2ccc(Cl)cc2)cc(-c2ccccc2)nc1SCC(=O)O` [GLD2A2], the IC50 in experiment [1] (setting [5]) was determined as 98 ± 10 µM; in experiment [2] (setting [6]), 60 ± 12 µM.
On the same counts, the results for `Nc1cc(N)nc(SCC(=O)O)n1` [GLD2A3] are greater than 100 µM and greater than 100 µM.
On the same counts, the results for `O=C(O)CSc1nc(-c2ccccc2)cc(C(F)(F)F)n1` [GLD2A4] are greater than 100 µM and greater than 100 µM.
On the same counts, the results for `O=C(O)CSc1nc(-c2cccs2)cc(C(F)(F)F)n1` [GLD2A10] are greater than 100 µM and greater than 100 µM.
For `O=C(O)CSc1nc(Nc2ccccc2)nc(N2CCOCC2)n1` [GLD2A18], the IC50 in experiment [1] (setting [5]) and in experiment [2] (setting [6]) was greater than 100 µM each time.
`O=C(O)CSc1nnc(-c2ccco2)c(-c2ccco2)n1` [GLD2]: the IC50 in experiment [1] (setting [5]) was found to be 18 ± 4 µM; in experiment [2] (setting [6]), 5 ± 3 µM.
As for `CCOc1cc(N(CC)CC)ccc1/C=C1\C(=O)N(c2nnn[nH]2)N=C1C` [GLD12A1], the IC50 in experiment [1] (setting [7]) worked out at 61 ± 8 µM; in experiment [2] (setting [8]) it was 65 ± 8 µM.
On the same counts, the results for `COc1cc(/C=C2\C(=O)N(c3nnn[nH]3)N=C2C)cc(Cl)c1OC` [GLD12A2] are 5 ± 2 µM and 4 ± 2 µM.
On the same counts, the results for `CCOc1cc(/C=C2\C(=O)N(c3nnn[nH]3)N=C2C)ccc1OC` [GLD12A3] are 75 ± 28 µM and 59 ± 13 µM.
For `CCOc1cc(/C=C2\C(=O)N(c3nnn[nH]3)N=C2C)cc(Cl)c1OCC` [GLD12A4], in that order: 7 ± 6 µM and 4 ± 2 µM.
Regarding `CC1=NN(c2nnn[nH]2)C(=O)/C1=C\c1cc(Cl)c(O)c(Cl)c1` [GLD12A5], the IC50 in experiment [1] (setting [7]) turned out to be 11 ± 3 µM; in experiment [2] (setting [8]), 13 ± 11 µM.
For `COc1ccc(/C=C2\C(=O)N(c3nnn[nH]3)N=C2C)cc1OCc1ccccc1Cl` [GLD12], in that order: 14 ± 7 µM and 5 ± 3 µM.
Turning to `CCOc1cc(CNc2nn[nH]n2)cc(Cl)c1OCc1ccc(Cl)cc1` [GLD19], the IC50 in experiment [1] (setting [9]) is greater than 100 µM; in experiment [2] (setting [10]), 52 ± 8 µM.
On the same counts, the results for `O=C(O)C(O)C(O)c1nc2cc3ccccc3cc2[nH]1` (stereo not drawn) [GLD20] are greater than 100 µM and 46 ± 12 µM.
Consider `O=C(Nc1ccccc1C(=O)O)c1cccc(S(=O)(=O)Nc2ccc(Oc3ccccc3)cc2)c1` [GLD25], for which the IC50 in experiment [1] (setting [9]) came out at 42 ± 10 µM; in experiment [2] (setting [10]), 18 ± 3 µM.
On the same counts, the results for `Cc1ccc2nc(-c3ccc(NC(=O)/C=C/C(=O)O)cc3)sc2c1` [GLD28] are 48 ± 19 µM and 23 ± 4 µM.
For `O=C(O)CN1C(=O)/C(=C2\SC(=S)N(C(Cc3ccccc3)C(=O)O)C2=O)c2ccccc21` (stereo not drawn) [GLD31], in that order: 92 ± 17 µM and 66 ± 17 µM.
As for `O=C(O)C1CCCCC1C(=O)Nc1ccc(Oc2cccc3ccccc23)cc1` (stereo not drawn) [GLD32], the values for the IC50 in experiment [1] (setting [9]) and in experiment [2] (setting [10]) were greater than 100 µM and 34 ± 7 µM, respectively.
Consider `COc1ccc(-c2nnc(SCC(=O)N/N=C/c3ccccc3C(=O)O)n2-c2ccccc2)cc1OC` [GLD38], for which the IC50 in experiment [1] (setting [5]) and in experiment [2] (setting [6]) was greater than 100 µM throughout.
Turning to `O=C(CSc1nnc(-c2ccc(Cl)cc2)n1-c1ccccc1)N/N=C/c1ccccc1C(=O)O` [GLD39], the IC50 in experiment [1] (setting [5]) and in experiment [2] (setting [6]) was greater than 100 µM throughout.
As to `Nc1c(C(=O)Nc2ccc(Cl)c(Cl)c2)sc2[nH]c(=O)c(C(=O)O)cc12` [GLD44], the figures for the IC50 in experiment [1] (setting [5]) and in experiment [2] (setting [6]) were 14 ± 6 µM and 5 ± 4 µM, respectively.
`COc1cccc(NC(=O)c2sc3[nH]c(=O)c(C(=O)O)cc3c2N)c1` [GLD45]: the IC50 in experiment [1] (setting [5]) was 82 ± 13 µM; in experiment [2] (setting [6]) it was 43 ± 12 µM.
On to `Cc1ccc(C(=O)O)cc1NC(=O)CSc1nc2ccccc2s1` [GLD59], for which the IC50 in experiment [1] (setting [9]) stood at 63 ± 22 µM; in experiment [2] (setting [10]), 17 ± 2 µM.
Turning to `CSc1ccc(/C=N/NC(=O)CSc2nnc(-c3ccc(Cl)cc3)n2-c2ccccc2)cc1` [HD39], the IC50 in experiment [1] (setting [5]) and in experiment [2] (setting [6]) was greater than 100 µM each time.
In the case of `O=C(Nc1ncccc1O)c1c(O)c2cccc3c2n(c1=O)CCC3` [LM11], the IC50 in experiment [1] (setting [11]) was 56 µM; in experiment [2] (setting [12]) it was 15 µM.
Turning to `COc1ccc(-c2nnc(SCC(=O)N/N=C/c3cccc(Oc4ccccc4)c3)n2-c2ccccc2)cc1OC` [LX6], the IC50 in experiment [1] (setting [5]) and in experiment [2] (setting [6]) was greater than 100 µM throughout.
`O=C(CSc1nnc(-c2ccc(Cl)cc2)n1-c1ccccc1)N/N=C/c1cccc(Oc2ccccc2)c1` [LX7]: the IC50 in experiment [1] (setting [5]) and in experiment [2] (setting [6]) was greater than 100 µM each time.
For the compound `COc1ccc(O)c(/C=N/NC(=O)CSc2nnc(-c3ccncc3)n2-c2ccccc2)c1` [MC41], the IC50 in experiment [1] (setting [5]) and in experiment [2] (setting [6]) was greater than 100 µM each time.
Turning to `COc1ccc(C2C(C(=O)c3ccco3)=C(O)C(=O)N2CCN2CCOCC2)c(OC)c1` (stereo not drawn) [MMC8], the results for the IC50 in experiment [1] (setting [3]) and in experiment [2] (setting [4]) were greater than 1000 µM and 395 µM, respectively.
Consider `CCOc1ccc2c(c1)C(=C1SC(C(=O)OC)=C(C(=O)OC)S1)C(=S)C(C)(C)N2C(=O)c1ccccc1F` [OT2], for which the figures for the IC50 in experiment [1] (setting [11]) and in experiment [2] (setting [12]) were greater than 100 µM and 95 ± 9 µM, respectively.
On the same counts, the results for `COc1cc(/C=C2/SC(=S)N(CC(=O)O)C2=O)ccc1OCc1ccccc1` [OT3] are greater than 100 µM and 92 ± 7 µM.
Consider `COc1cc(/C=C2/SC(=S)N(CC(=O)O)C2=O)ccc1OCc1ccccc1Cl` [OT4], for which the results for the IC50 in experiment [1] (setting [11]) and in experiment [2] (setting [12]) were 48 ± 7 µM and 22 ± 4 µM, respectively.
For `COc1ccc(/C=C2/SC(=S)N(CC(=O)O)C2=O)cc1OCc1ccccc1` [OT5], the results for the IC50 in experiment [1] (setting [11]) and in experiment [2] (setting [12]) were greater than 100 µM and 54 ± 17 µM, respectively.
In the case of `COc1ccc(/C=C2/SC(=S)N(CC(=O)O)C2=O)cc1CCc1ccc(Cl)cc1Cl` [OT6], the IC50 is 17 ± 4 µM in experiment [1] (setting [11]) and 13 ± 7 µM in experiment [2] (setting [12]).
On the same counts, the results for `O=C(N/N=C/c1ccc(-c2ccc(Cl)c(Cl)c2)o1)c1ccccc1O` [OT8] are 31 ± 16 µM and 14 ± 4 µM.
For `COc1cc(/C=C2/SC(=S)N(CC(=O)O)C2=O)ccc1OC(=O)c1ccc(F)cc1` [OT9], in that order: greater than 100 µM and 97 ± 5 µM.
Take `COc1ccc(/C=N/NC(=O)CSc2nnc(-c3ccccc3)n2-c2ccccc2)c(C(=O)O)c1OC` [OT10]: the IC50 in experiment [1] (setting [5]) and in experiment [2] (setting [6]) was greater than 100 µM each time.
Take `COc1cc(/C=C2/SC(=S)N(CCC(=O)O)C2=O)ccc1OC(=O)c1ccccc1` [OT17]: the IC50 in experiment [1] (setting [11]) is 42 ± 20 µM; in experiment [2] (setting [12]), 27 ± 11 µM.
